In EP4610262A1, “MACROCYCLIC COMPOUND AS CDK9 INHIBITOR AND USE THEREOF” (Artivila Biopharma, priority 2022, dated 2024):

What follows are compounds tested against CDK9 (Homo sapiens, UniProt P50750) (assay: Inhibition of CDK9 kinase activity (caliper mobility shift assay)). Details: 10 concentrations from 10 µM, three-fold dilutions.
Type: biochemical
Protocol: Compounds were tested at a concentration of 10 nM with detection in duplicate wells, or tested at 10 concentrations starting from 10 µM with three-fold serial dilutions, with detection in duplicate wells.
The inhibitory effect of the compounds on the activity of CDK9 protein kinase was detected by the caliper mobility shift assay method. 250 nL of the compound at 100-fold final concentration was transferred to a target 384-well-plate with a dispenser Echo 550. A kinase solution at 2.5-fold final concentration was prepared using 1× kinase buffer. 10 µL of the kinase solution at 2.5-fold final concentration was added to the compound well and positive control well respectively. 10 µL of 1× kinase buffer was added to the negative control well. The 384-well plate was centrifuged at 1000 rpm for 30 seconds and incubated at room temperature for 10 minutes. A mixed solution of ATP and kinase substrate at 5/3-fold final concentration was prepared with 1× kinase buffer, and to the 384-well plate was added with 15 µL per well of the mixed solution of ATP and substrate at 5/3-fold final concentration to start the reaction. The plate was centrifuged at 1000 rpm for 30 seconds, shaken to mix evenly, and incubated at room temperature for a corresponding time. 30 µL of detection stopping solution was added to terminate the kinase reaction. The 384-well plate was centrifuged at 1000 rpm for 30 seconds and shaken to mix evenly. The conversion rate was read with Caliper EZ Reader. The percent conversion inhibition rate = (% positive control conversion rate mean - % sample conversion rate / (% positive control conversion rate mean - % negative control conversion rate mean). Among them: negative control wells represent the conversion rate readings of kinase buffer background wells; positive control wells represent the conversion rate readings of wells without inhibition by compound. With the log value of concentration as the x-axis and the percentage inhibition rate as the y-axis, a dose-response curve was fitted using the log (inhibitor) vs. response -Variable slope of the analysis software GraphPad Prism 5 to obtain the IC50 value of each compound on enzyme activity. Calculation formula: y=Bottom + (Top-Bottom)/(1+10^((LogIC50-x) × hillslope)), x: logarithm of inhibitor concentration; y: % inhibition rate.

CDK9, sequence (P50750 whole entry): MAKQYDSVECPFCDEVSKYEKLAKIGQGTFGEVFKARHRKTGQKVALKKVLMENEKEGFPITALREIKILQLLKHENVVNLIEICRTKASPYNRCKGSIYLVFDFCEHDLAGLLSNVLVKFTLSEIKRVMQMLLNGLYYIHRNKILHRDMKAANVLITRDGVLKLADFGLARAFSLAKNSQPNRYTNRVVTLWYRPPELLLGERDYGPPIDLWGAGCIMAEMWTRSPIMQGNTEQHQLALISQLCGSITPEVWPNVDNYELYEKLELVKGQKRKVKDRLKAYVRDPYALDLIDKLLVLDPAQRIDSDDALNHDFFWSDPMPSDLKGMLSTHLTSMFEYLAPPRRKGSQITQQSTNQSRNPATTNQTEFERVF
CDK9, sequence (O60563 whole entry partner): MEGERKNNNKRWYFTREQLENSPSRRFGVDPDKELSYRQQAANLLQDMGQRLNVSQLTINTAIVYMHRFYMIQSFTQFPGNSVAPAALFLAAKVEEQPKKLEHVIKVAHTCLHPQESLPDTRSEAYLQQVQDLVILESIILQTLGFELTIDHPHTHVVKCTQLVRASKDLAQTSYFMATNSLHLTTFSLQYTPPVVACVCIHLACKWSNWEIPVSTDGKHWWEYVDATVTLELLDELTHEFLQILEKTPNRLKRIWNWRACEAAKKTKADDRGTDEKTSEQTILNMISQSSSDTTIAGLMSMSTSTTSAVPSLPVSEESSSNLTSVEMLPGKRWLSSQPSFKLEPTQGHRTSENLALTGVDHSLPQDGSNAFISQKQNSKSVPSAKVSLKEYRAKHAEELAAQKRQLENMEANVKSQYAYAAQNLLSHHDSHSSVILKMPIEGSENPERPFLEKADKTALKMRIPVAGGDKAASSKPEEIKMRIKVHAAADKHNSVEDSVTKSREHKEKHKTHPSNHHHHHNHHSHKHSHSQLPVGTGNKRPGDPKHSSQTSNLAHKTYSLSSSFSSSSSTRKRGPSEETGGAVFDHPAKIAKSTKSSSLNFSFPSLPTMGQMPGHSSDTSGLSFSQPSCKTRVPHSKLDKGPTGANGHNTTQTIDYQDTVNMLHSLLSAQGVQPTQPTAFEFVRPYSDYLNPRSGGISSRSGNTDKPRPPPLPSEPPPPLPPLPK

| SMILES | IC50 |
| --- | --- |
| c1cc2cc(c1)Nc1nccc(n1)NCCCCCNC2 [Compound 24, 2,5,11-triaza-1(2,4)-pyrimidina-3(1,3)-benzocycloundecaphane] | < 100 nM |
| Cc1ccc2cc1-c1nc(ncc1F)Nc1cccc(c1)NCCCCN2 [Compound 30, 2^5-fluoro-1^6-methyl-3,5,10-triaza-2(4,2)-pyrimidina-1,4(1,3)-dibenzenacyclodecaphane] | < 100 nM |
| Clc1cnc2nc1-c1cccc(c1)OCCCCNCc1cccc(c1)N2 [Compound 34, 2^5-chloro-11-oxa-3,6-diaza-2(4,2)-pyrimidina-1,4(1,3)-dibenzenacycloundecaphane] | < 100 nM |
| Cc1nc2sc1-c1nc(ncc1F)Nc1cccc(c1)NC/C=C\CN2 [Compound 6, (Z)-2^5-fluoro-1^4-methyl-3,5,10-triaza-1(5,2)-thiazolin-2(4,2)-pyrimidina-4(1,3)-benzenacyclodec aphan-7-ene] | 100 to 500 nM |
| Cc1ccc2cc1-c1nc(ncc1Cl)Nc1cccc(c1)CNCCCCO2 [Compound 36, 2^5-chloro-1^6-methyl-11-oxy-3,6-diaza-2(4,2)-pyrimidina-1,4(1,3)-dibenzocycloundecaphane] | < 100 nM |
| CN1CCN(c2ccc3cc2COCCCCCNc2nc(ncc2Cl)N3)CC1 [Compound 21, 1^5-chloro-3^4-(4-methylpiperazin-1-yl)-5-oxa-2,11-diaza-1(2,4)-pyrimidina-3(1,3)-benzenacyclou ndecaphane] | 100 to 500 nM |
| Cc1ccc2cc1-c1nc(ncc1Cl)Nc1cccc(c1)NCCCCN2 [Compound 22, 2^5-chloro-1^6-methyl-3,5,10-triaza-2(4,2)-pyrimidina-1,4(1,3)-dibenzocyclodecane] | < 100 nM |
| Clc1cnc2nc1N1CCC(C1)NCCCNCc1cccc(c1)N2 (centres unmarked) [Compound 43, 2^5-chloro-3,6,10-triaza-2(4,2)-pyrimidina-1(1,3)-pyrrolidina-4(1,3)-benzenacyclodecaphane] | 500 to 1000 nM |
| Cc1ccc2cc1-c1nc(ncc1F)Nc1cccc(c1)NC/C=C\CN2 [Compound 29, (Z)-2^5-fluoro-1^6-methyl-3,5,10-triaza-2(4,2)-pyrimidina-1,4(1,3)-dibenzenacyclodecaphan-7-ene] | < 100 nM |
| Cc1nc2sc1-c1nc(ncc1F)Nc1cccc(c1)NCCOCCN2 [Compound 5, 2^5-fluoro-1^4-methyl-8-oxa-3,5,11-triaza-1(5,2)-thiazol-2(4,2)-pyrimidina-4(1,3)-benzenacyclodec aphane] | < 100 nM |
| Fc1cnc2nc1-c1cccc(c1)NC/C=C\CNc1cccc(c1)N2 [Compound 37, (Z)-2^5-fluoro-3,5,10-triaza-2(4,2)-pyrimidina-1,4(1,3)-dibenzenacyclooctyna-7-ene] | < 100 nM |
| Clc1cnc2nc1-c1cnn(c1)CCCCCNc1cccc(c1)N2 [Compound 32, (Z)-2^5-chloro-1^1H-3,5-diaza-2(4,2)-pyrimidina-1(4,1)-pyrazola-4(1,3)-benzenacyclodecaphane] | < 100 nM |
| Clc1cnc2nc1-c1cnn(c1)CCCCCCn1cc(c(Cl)n1)N2 [Compound 33, (1^4Z,4^4E,7Z)-2^5,4^3-chloro-1^1H,4^1H-3-aza-2(4,2)-pyrimidina-1,4(4,1)-bipyrazolacyclodecaphane] | 500 to 1000 nM |
| Clc1cnc2nc1NCCCCCn1cc(cn1)N2 [Compound 47, (E)-1^5-chloro-3^1H-2,9-diaza-1(2,4)-pyrimidina-3(4,1)-pyrazolacyclononaphane] | 100 to 500 nM |
| COc1ccc2cc1-c1nc(ncc1F)Nc1cccc(c1)NCCCCN2 [Compound 40, 2^5-fluoro-1^6-methoxy-3,5,10-triaza-2(4,2)-pyrimidina-1,4(1,3)-dibenzenacyclodecaphane] | < 100 nM |
| Cc1ccc2cc1-c1nc(ncc1Cl)Nc1cnn(c1)CC/C=C\CN2 [Compound 27, (4^4E,7Z)-2^5-chloro-1^6-methyl-4^1hydro-3,10-diaza-2(4,2)-pyrimidina-4(4,1)-pyrazole-1(1,3)-benz enecyclodecane-7-ene] | < 100 nM |

Same assay, conditions: compound at 10 nM; read-out: Inhibition rate on CDK9 kinase activity

| SMILES | inhibition at 0.01 µM |
| --- | --- |
| Cc1nc2sc1-c1nc(ncc1F)Nc1cccc(c1)NCCOCCN2 [Compound 5, 2^5-fluoro-1^4-methyl-8-oxa-3,5,11-triaza-1(5,2)-thiazol-2(4,2)-pyrimidina-4(1,3)-benzenacyclodec aphane] | 25 to 49% |
